Measured values as given in article PMC11085156 (Molecules, 2024).
Where two headings read alike, the source gives them in different places. Values belong to the molecule of their own block, whether it stands above or below them.

Assays:
[1] = system: human dermal fibroblasts (CRL-2097); conditions: 50 µM
Protocol: (§1) DMSO and water were the solvent controls for the artemisinic compounds and teas, respectively. Fibroblasts (passages 10–14) were seeded in 6-well plates in 2 mL medium at a density of 6250 cells/cm^2. After overnight attachment, media were aspirated and replaced with test drugs in growth media at the indicated concentrations and incubated at 37 °C and 5% CO2 in high humidity.
(§2) After 1 or 4 d of treatment, media were aspirated and replaced with media containing resazurin (Thermo Fisher Scientific B21187.03) at a final concentration of 25 µg/mL (stock solution 0.15 mg/mL in DPBS). […] Fluorescence readings were normalized to the appropriate solvent controls.

[2] = system: smooth-muscle α-actin (α-SMA); assay: Immunofluorescence staining for α-SMA in treated fibroblasts; format: cell-based, human; conditions: 4 d treatment, 50 µM drug or tea (A. afra 1/4X)
Source text: After 1 and 4 d, cells were fixed with paraformaldehyde and stained for immunofluorescence using primary mouse anti-α-SMA (Santa Cruz Biotechnology, Dallas, TX, USA, sc-32251) and secondary goat anti-mouse IgG AlexaFluor488-conjugated antibodies (Thermo Fisher Scientific A-11001), and DNA was counterstained with Hoechst 33342 as previously described.

[3] = GC-MS analysis of culture media incubated with drugs in the absence of cells; format: physicochemical
[4] = system: ACTA2, COL1A1, COL3A1, TGFB1, TGFB2, TGFBR1, MMP1, and MMP3; assay: qRT-PCR gene expression in drug-treated fibroblasts: panel of fibrosis-related marker genes; format: cell-based, human; conditions: 4 d treatment; 50 µM
Protocol: Drug treatments were performed as follows. […] RNA from cells after 4 d of drug treatment was isolated using the NucleoSpin RNA/protein mini kit (Macherey-Nagel, Allentown, PA, USA, 740933.50) according to the manufacturer’s instructions. The concentration of isolated RNA was measured using a Nanodrop 2000c Spectrophotometer (Thermo Scientific). […] A SYBR-based PowerTrack master mix (Thermo Fisher Scientific A46012) was used to perform RT-qPCR on a QuantStudio 6 Pro Real-Time PCR system (Thermo Fisher Scientific) in 10 μL reactions. The thermal protocol was as follows: 95 °C for 2 min, then 40 cycles of 95 °C for 15 s and 60 °C for 60 s. PCR primer sequences are listed in Table 2 and were the same as used in Larson et al., 2019 [17]. Fold change in gene expression was determined using the ΔΔCT method with GAPDH as the housekeeping gene.

[5] = system: human dermal fibroblasts (CRL-2097); assay: Resazurin viability assay of human dermal fibroblasts; conditions: for change in fibroblast viability: 50 µM
Protocol: as §1, §2

[6] = system: TGFB2; assay: qRT-PCR gene expression in drug-treated fibroblasts: TGFB2; format: cell-based, human; conditions: 4 d treatment; 50 µM; GAPDH internal control
Protocol: (§3) DMSO and water were the solvent controls for the artemisinic compounds and teas, respectively. Fibroblasts (passages 10–14) were seeded in 6-well plates in 2 mL medium at a density of 6250 cells/cm^2. After overnight attachment, media were aspirated and replaced with test drugs in growth media at the indicated concentrations and incubated at 37 °C and 5% CO2 in high humidity. After 4 d of drug treatment, cells were harvested, washed with 1× Dulbecco’s phosphate-buffered saline (DPBS; Thermo Fisher Scientific 14190136), snap frozen in liquid nitrogen, and stored at −80 °C until the time of RNA extraction for analysis.
(§4) RNA from cells after 4 d of drug treatment was isolated using the NucleoSpin RNA/protein mini kit (Macherey-Nagel, Allentown, PA, USA, 740933.50) according to the manufacturer’s instructions. The concentration of isolated RNA was measured using a Nanodrop 2000c Spectrophotometer (Thermo Scientific). Complementary DNA (cDNA) was synthesized from RNA using a QuantiTect reverse transcription kit (Qiagen, Germantown, MD, USA, 205313) following the manufacturer’s instructions. A SYBR-based PowerTrack master mix (Thermo Fisher Scientific A46012) was used to perform RT-qPCR on a QuantStudio 6 Pro Real-Time PCR system (Thermo Fisher Scientific) in 10 μL reactions.

[7] = Thin-layer chromatography of media from drug-treated fibroblasts; format: in vitro ADME, human; conditions: fibroblast cultures, 50 µM
Protocol: Media were extracted 1:1 with dichloromethane overnight, after which the solvent was separated and dried. Extracts (equivalent to 1 mL media) were resuspended in dichloromethane, spotted on Si-gel 60 F254 plates (EMD Millipore, Burlington, MA, USA, cat #1.05735.0001), and run in a mobile phase of 5:11:4 dichloromethane–hexane–acetone plus 0.5% v/v acetic acid. Plates were stained with p-anisaldehyde reagent (75 mL ethanol, 2.5 mL sulfuric acid, 1 mL acetic acid, and 2 mL p-anisaldehyde (Sigma Aldrich, St. Louis, MO, USA, A88107-100G)) and heated for 10 min at 105 °C.

[8] = system: TGFBR1; assay: qRT-PCR gene expression in drug-treated fibroblasts: TGFBR1; format: cell-based, human; conditions: 4 d treatment; 50 µM; GAPDH internal control
Protocol: as §3, §4

[9] = system: MMP3; assay: qRT-PCR gene expression in drug-treated fibroblasts: MMP3; format: cell-based, human; conditions: 4 d treatment; 50 µM; GAPDH internal control
Protocol: as §3, §4

[10] = system: MMP1; assay: qRT-PCR gene expression in drug-treated fibroblasts: MMP1; format: cell-based, human; conditions: 4 d treatment; 50 µM; GAPDH internal control
Protocol: as §3, §4

[11] = cell-free culture media incubated 4 days, 50 µM ART drugs, GC-MS
[12] = cell-free culture media, 50 µM ART drugs, GC-MS
[13] = 1 d treatment, 50 µM drug or tea normalized to 50 µM ART, % of solvent control

Structure (SMILES): CO[C@H]1O[C@@H]2O[C@@]3(C)CC[C@H]4[C@H](C)CC[C@@H]([C@H]1C)[C@@]24OO3 [AM, artemether]
change in fibroblast viability [1]: no significant change

concentration of dART in culture media, Day 4 [3, 11]: 0.5 µg/mL | concentration of the treatment drug (ART for the tea) in culture media, Day 4 ([3]; cell-free culture media incubated 4 days, 50 µM ART drugs, GC-MS, ND = not detected): 0.42 µg/mL | concentration of dART in culture media, Day 0 [3, 12]: 0 µg/mL | ART disappeared ([3]; day 4, cell-free culture media): > 99%
Structure (SMILES): C[C@@H]1CC[C@H]2[C@@H](C)C(=O)O[C@@H]3O[C@@]4(C)CC[C@@H]1[C@]32OO4 [ART, artemisinin]
α-SMA staining compared to solvent control [2]: substantial increase | effects on the expressions of other markers (other than MMP1) [4]: lacked effects | change in fibroblast viability ([5]; 1 d exposure, vs solvent control): no significant change | decrease in fibroblast viability ([5]; 4 d treatment, 50 µM drug or tea infusion, % of respective control): about 20%

concentration of dART in culture media, Day 4 [3, 11]: 1.5 µg/mL | concentration of dART in culture media, Day 0 [3, 12]: 0 µg/mL
Structure (SMILES): C[C@H]1[C@H](OC(=O)CCC(=O)O)O[C@@H]2O[C@@]3(C)CC[C@H]4[C@H](C)CC[C@@H]1[C@@]24OO3 [AS, artesunate]
α-SMA staining compared to solvent control [2]: considerably decreased | decrease in fibroblast viability [5, 13]: ~35%

treatment drug remaining in media (TLC) ([7]; after day 1): nearly gone | dART in media (TLC) ([7]; day 4): observed | treatment drug (ART for the tea) remaining in media (TLC) ([7]; day 4): undetectable | concentration of dART in culture media, Day 4 [3, 11]: 6.9 µg/mL | concentration of dART in culture media, Day 0 [3, 12]: 0 µg/mL
Structure (SMILES): C[C@H]1[C@@H](O)O[C@@H]2O[C@@]3(C)CC[C@H]4[C@H](C)CC[C@@H]1[C@@]24OO3 [DHA, dihydroartemisinin]
α-SMA staining compared to solvent control [2]: considerably decreased | decrease in TGFB2 expression, fold change vs. solvent control [6]: 3.7 fold | decrease in TGFBR1 expression, fold change vs. solvent control [8]: 4 fold | decrease in fibroblast viability [5, 13]: ~45% | increase in MMP3 expression, fold change vs. solvent control [9]: 51.8 fold | increase in MMP1 expression, fold change vs. solvent control [10]: 8 fold

Structure (SMILES): C[C@@H]1CC[C@H]2[C@@H](C)C(=O)O[C@@H]3O[C@@]4(C)CC[C@@H]1[C@]32O4 [dART, deoxyartemisinin]
change in fibroblast viability ([5]; 4 d treatment, vs control): no change
